Laboratory results: US20220125771A1, “S[…], ANALOGUES THEREOF, AND METHODS USING SAME” (priority 2019, published 2022)
Read-outs that look alike come from different tables or passages of the source.

Tested on: HBsAg in HepG2.2.15 cells
Test: HBsAg Assay: inhibition of HBsAg in HepG2.2.15 cells (CLIA immunoassay of supernatant)
Assay type: cell-based, hepatitis B virus
Details: supernatant collected at day 6 after exposure of compounds, final DMSO 0.5%
Procedure: Inhibition of HBsAg was determined in HepG2.2.15 cells. Cells were maintained in culture medium containing 10% fetal calf serum, […], Glutamine, penicillin/streptomycin. Cells were seeded in 96-well collagen-coated plate at a density of 30,000 cells/well. Serially diluted compounds were added to cells next day at the final DMSO concentration of 0.5%. Cells were incubated with compounds for 2-3 days, after which medium was removed. Fresh medium containing compounds was added to cells for additional 3-4 days. At day 6 after exposure of compounds, supernatant was collected, the HBsAg immunoassay (microplate-based chemiluminescence immunoassay kits, CLIA, Autobio Diagnosics Co., Zhengzhou, China, Catalog #CL0310-2) was used to determine the level of HBsAg according to manufactory instruction. Dose-response curves were generated and the EC50 value (effective concentrations that achieved 50% inhibitory effect) were determined using XLfit software. In addition, cells were seeded at a density of 5,000 cells/well for determination of cell viability in the presence and absence of compounds by using CellTiter-Glo reagent (Promega). Tables 1-3 show EC50 values obtained by the HBsAg assay for selected compounds.

[1] = read-out: sAg EC50, HepG2.2.15 cells
[2] = Hepatitis B virus, HepG2.2.15, 144 h, read-out: sAg EC50, μM, HepG2.2.15 cells

| Structure (SMILES) | EC50 [1] [µM] | EC50 [2] [µM] |
| --- | --- | --- |
| CC(C)(C)C1Cn2c(cc3c(OC(F)F)cccc32)-c2[nH]c(=O)c(C(=O)O)c(O)c21 (single isomer, unassigned) [Example 2, 5-(tert-Butyl)-11-(difluoromethoxy)-4-hydroxy-2-oxo-1,2,5,6-tetrahydroindolo[1,2-h][1,7]naphthyridine-3-carboxylic Acid] | 1 | – |
| COc1c(C(=O)O)c(=O)c2c(n1C)-c1cc(OC(F)F)c3ncccc3c1CC2C(C)(C)C (stereo not drawn) [Example 46, 6-(tert-Butyl)-12-(difluoromethoxy)-9-methoxy-10-methyl-7-oxo-5,6,7,10-tetrahydroquinolino[7,8-f]quinoline-8-carboxylic Acid] | – | 0.3 |
| COc1cc2c(c3cccnc13)CC(C(C)(C)C)c1cc(C(=O)O)c(=O)[nH]c1-2 (single isomer, unassigned) [Example 36, 6-(tert-Butyl)-12-methoxy-9-oxo-5,6,9,10-tetrahydroquinolino[7,8-f]quinoline-8-carboxylic Acid] | 5.2 | – |
| COc1cccn2c3c(nc12)-c1[nH]c(=O)c(C(=O)O)cc1C(C(C)C)C3 (single isomer, unassigned) [Example 17, 5-Isopropyl-11-methoxy-2-oxo-1,2,5,6-tetrahydropyrido[2′,1′:2,3]imidazo[4,5-h]quinoline-3-carboxylic Acid] | 10 | – |
| CN1CCCc2c3c(cc(OC(F)F)c21)-c1[nH]c(=O)c(C(=O)O)cc1C(C(C)(C)C)C3 (single isomer, unassigned) [Example 33, 6-(tert-Butyl)-12-(difluoromethoxy)-1-methyl-9-oxo-1,2,3,4,5,6,9,10-octahydroquinolino[7,8-f]quinoline-8-carboxylic Acid] | 0.3 | – |
| CC(=O)N1CCCc2c3c(cc(OC(F)F)c21)-c1[nH]c(=O)c(C(=O)O)cc1C(C(C)(C)C)C3 (stereo not drawn) [Example 31, 1-Acetyl-6-(tert-butyl)-12-(difluoromethoxy)-9-oxo-1,2,3,4,5,6,9,10-octahydroquinolino[7,8-f]quinoline-8-carboxylic Acid] | – | 0.05 |
| COc1ccn2c3c(nc2c1OC)-c1c(cc(C(=O)O)c(=O)n1C)C(C(C)(C)C)C3 (single isomer, unassigned) [Example 23, 5-(tert-butyl)-10,11-dimethoxy-1-methyl-2-oxo-1,2,5,6-tetrahydropyrido[2′,1′:2,3]imidazo[4,5-h]quinoline-3-carboxylic Acid] | 0.011 | – |
| COc1cccn2c3c(nc12)-c1[nH]c(=O)c(C(=O)O)cc1C(C(C)(C)C)C3 (single isomer, unassigned) [Example 15, 5-(tert-Butyl)-11-methoxy-2-oxo-1,2,5,6-tetrahydropyrido[2′,1′:2,3]imidazo[4,5-h]quinoline-3-carboxylic Acid] | 1 | – |
| COc1nc2c(c3ccccc13)CC(C(C)(C)C)c1cc(C(=O)O)c(=O)[nH]c1-2 (single isomer, unassigned) [Example 42, 12-(tert-Butyl)-6-methoxy-3-oxo-3,4,11,12-tetrahydrobenzo[c][1,10]phenanthroline-2-carboxylic Acid] | 0.075 | – |
| CC(C)C1Cc2c(nc3c(OC(F)F)cccn23)-c2[nH]c(=O)c(C(=O)O)cc21 (single isomer, unassigned) [Example 13, 11-(Difluoromethoxy)-5-isopropyl-2-oxo-1,2,5,6-tetrahydropyrido[2′,1′:2,3]imidazo[4,5-h]quinoline-3-carboxylic Acid] | 1.1 | – |
| CC(C)(C)C1Cc2c(cc(OC(F)F)c3ncccc23)-c2[nH]c(=O)c(C(=O)O)cc21 (single isomer, unassigned) [Example 37, 6-(tert-Butyl)-12-(difluoromethoxy)-9-oxo-5,6,9,10-tetrahydroquinolino[7,8-f]quinoline-8-carboxylic Acid] | 0.003 | – |
| CC(C)(C)C1Cn2c(cc3c(OC(F)F)cccc32)-c2[nH]c(=O)c(C(=O)O)c(O)c21 (single isomer, unassigned) [Example 3, 5-(tert-Butyl)-11-(difluoromethoxy)-4-hydroxy-2-oxo-1,2,5,6-tetrahydroindolo[1,2-h][1,7]naphthyridine-3-carboxylic Acid] | 0.005 | – |
